EC50 data for 25 compounds are collected here from US10556907B2 (AbbVie Inc., priority 2015, dated 2020).

Assay in all cases: Method 1: intracellular Ca2+ release (FLIPR, Calcium 5) in recombinant CHO-K1 cells
Common to all, as to assay type: cell-based

The target of one test is T1, human S1PR5 receptor (Homo sapiens, UniProt Q9H228).
T1 construct: host or cells: CHO-K1
The conditions noted are these: agonist potency, determined with method 1 (symbols A-D); read-out: S1P5 EC50 range. The procedure:
(§1) Agonistic activity was measured using two different methods, described below.
(§2) Method 1. Intracellular Ca^2+ Release
(§3) Agonist potency and intrinsic activity was assessed by measurement of intracellular Ca^2+ release. Recombinant CHO-K1 cells (Euroscreen, Brussels, Belgium) expressing human S1PR5, S1PR1, S1PR3 or S1PR4 receptors, aequorin, and GTP binding protein Gq/i5 were cultured using a medium containing nutrient mixture F-12 Ham (Sigma-Aldrich) with 10% FBS, and 100 μg/mL gentamicin and equilibrated at 5% CO2.
(§4) 15.000 cells in 20 μL medium were seeded into Biocoat poly-D-Lysine coated 384 well plates (Becton Dickinson #35-6663) and grown to 95% confluency after 24 h.
(§5) Culture medium was replaced by an assay buffer consisting of HBBS with Ca^2+ and Mg^2+ (Invitrogen #14025-050), 20 mmol/L Hepes (Sigma-Aldrich #H-3375), 2.5 mmol/L probenecid (Sigma-Aldrich #P-8761, and 0.1% BSA (Sigma-Aldrich #A-7030) pH 7.4. The Calcium 5 no-wash FLIPR assay kit (Molecular Devices #5000625) was performed as described in the kit instructions. Cells were incubated with Calcium 5 dye for 1 h at 37° C., 5% CO2 in the dark. After 45 min adaptation to RT assessment of agonist stimulation of intracellular Ca^2+ release was performed by addition of test compounds at concentrations obtained by serial dilution. Phospho-fingolimod was used as positive control. Antagonists were pre-incubated for 10 min with cells before addition of the agonist (phospho-fingolimod at EC80). Measurements were performed using a fluorometric imaging plate reader FLIPR® tetra (Molecular Devices). Agonist at the human S1P receptors were characterized by deducing EC50 (potency) values from a nonlinear fit to the measured fluorescence raw data after normalization to the reference agonist (phospho-fingolimod) curve.

For another test, the target named is T2, human S1PR1 receptor (Homo sapiens, UniProt P21453).
T2 construct: host or cells: CHO-K1
To be noted: (1): determined with method 1; read-out: S1P1 EC50. How it is done: as §1, §2, §3, §4, §5

The next test addresses T3, human S1PR3 receptor (Homo sapiens, UniProt Q99500).
T3 construct: host or cells: CHO-K1
To be noted: (1): determined with method 1; read-out: S1P3 EC50. How it is done:
as §1, §2, §3, §4, §5

Where only a bound is given, the exact number is not on record here.

T3 sequence (Q99500 whole entry): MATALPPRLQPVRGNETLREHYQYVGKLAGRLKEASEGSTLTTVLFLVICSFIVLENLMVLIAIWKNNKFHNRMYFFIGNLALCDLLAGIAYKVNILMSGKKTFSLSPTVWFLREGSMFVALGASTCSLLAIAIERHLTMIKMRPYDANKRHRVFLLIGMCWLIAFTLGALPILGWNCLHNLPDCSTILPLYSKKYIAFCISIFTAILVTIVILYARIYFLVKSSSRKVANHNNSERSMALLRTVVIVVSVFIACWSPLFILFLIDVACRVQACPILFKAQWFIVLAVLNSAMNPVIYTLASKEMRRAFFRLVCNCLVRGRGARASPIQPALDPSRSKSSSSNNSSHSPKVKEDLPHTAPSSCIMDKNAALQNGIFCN
T2 sequence (P21453 whole entry): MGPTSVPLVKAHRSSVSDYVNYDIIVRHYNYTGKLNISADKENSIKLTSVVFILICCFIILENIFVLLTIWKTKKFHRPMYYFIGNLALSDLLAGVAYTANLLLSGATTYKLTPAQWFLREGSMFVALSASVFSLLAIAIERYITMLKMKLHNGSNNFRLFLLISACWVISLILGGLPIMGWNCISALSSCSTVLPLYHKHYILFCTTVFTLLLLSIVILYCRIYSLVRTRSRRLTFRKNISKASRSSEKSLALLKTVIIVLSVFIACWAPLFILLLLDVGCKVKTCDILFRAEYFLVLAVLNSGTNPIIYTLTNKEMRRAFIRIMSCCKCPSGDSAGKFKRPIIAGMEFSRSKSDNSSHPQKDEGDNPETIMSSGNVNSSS
T1 sequence (Q9H228 whole entry): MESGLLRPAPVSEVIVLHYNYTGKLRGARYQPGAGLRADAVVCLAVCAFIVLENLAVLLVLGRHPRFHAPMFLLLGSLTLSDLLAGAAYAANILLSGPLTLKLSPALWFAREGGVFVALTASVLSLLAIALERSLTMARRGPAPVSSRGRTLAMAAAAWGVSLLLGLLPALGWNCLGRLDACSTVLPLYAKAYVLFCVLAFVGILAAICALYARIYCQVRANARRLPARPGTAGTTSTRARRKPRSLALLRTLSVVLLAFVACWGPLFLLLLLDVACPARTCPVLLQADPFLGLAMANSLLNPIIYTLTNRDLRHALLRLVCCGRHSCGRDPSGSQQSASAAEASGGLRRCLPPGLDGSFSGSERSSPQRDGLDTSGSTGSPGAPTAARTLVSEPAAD

For orientation: EC50 means the concentration that produces a half-maximal response. For the compound `CC(CN1CCc2nc(-c3ccc(OCc4ccc(F)c(F)c4)cc3)ncc2C1)C(=O)O` (stereo not drawn) [Compound 11, 3-(2-(4-((3,4-difluorobenzyl)oxy)phenyl)-7,8-dihydropyrido[4,3-d]pyrimidin-6(5H)-yl)-2-methylpropanoic acid], the EC50 on human S1PR5 receptor was less than 10 nM; on human S1PR1 receptor, more than 1000 nM; at human S1PR3 receptor, more than 1000 nM.
Turning to `Cc1c(COc2ccc(-c3ncc4c(n3)CCN(CCC(=O)O)C4)cc2)cccc1C(F)(F)F` [Compound 94, 3-(2-(4-((2-methyl-3-(trifluoromethyl)benzyl)oxy)phenyl)-7,8-dihydropyrido[4,3-d]pyrimidin-6(5H)-yl)propanoic acid], the EC50 on human S1PR5 receptor was less than 10 nM; on human S1PR1 receptor, less than 1000 nM; on human S1PR3 receptor it was more than 1000 nM.
With `O=C(O)CCCN1Cc2cnc(-c3ccc(OCc4ccccc4)cc3)nc2C1` [Compound 99, 4-(2-(4-(benzyloxy)phenyl)-5H-pyrrolo[3,4-d]pyrimidin-6(7H)-yl)butanoic acid], the results for the EC50 at human S1PR5 receptor, at human S1PR1 receptor and at human S1PR3 receptor were 1000 to 10000 nM, more than 1000 nM and more than 1000 nM, respectively.
Take `CC(CN1CCc2nc(-c3cccc(OCc4ccccc4)c3)ccc2C1)C(=O)O` (stereo not drawn) [Compound 107]: the EC50 on human S1PR5 receptor was 1000 to 10000 nM; on human S1PR1 receptor, more than 1000 nM; at human S1PR3 receptor, more than 1000 nM.
On to `O=C(O)CCN1CCc2nc(-c3ccc(OCc4cccc(OC(F)(F)F)c4)cc3)ccc2C1` [Compound 151, 3-(2-(4-((3-trifluoromethoxybenzyl)oxy)phenyl)-7,8-dihydro-1,6-naphthyridin-6(5H)-yl)propanoic acid], for which the EC50 on human S1PR5 receptor is less than 10 nM; at human S1PR1 receptor it was less than 1000 nM; on human S1PR3 receptor, more than 1000 nM.
In the case of `O=C(O)CCN1CCc2nc(-c3ccc(OCc4ccc(Cl)cc4)cc3)c(F)cc2C1` [Compound 187, 3-(2-(4-((4-chlorobenzyl)oxy)phenyl)-3-fluoro-7,8-dihydro-1,6-naphthyridin-6(5H)-yl)propanoic acid], the EC50 at human S1PR5 receptor is less than 10 nM; on human S1PR1 receptor, less than 1000 nM; on human S1PR3 receptor, more than 1000 nM.
On the same counts, the results for `CC(CC(=O)O)N1Cc2ccc(-c3ccc(OCc4c(Cl)cccc4Cl)cc3)nc2C1` (stereo not drawn) [Compound 201, 3-(2-(4-((2,6-dichlorobenzyl)oxy)phenyl)-5H-pyrrolo[3,4-b]pyridin-6(7H)-yl)butanoic acid] are 1000 to 10000 nM, more than 1000 nM and more than 1000 nM.
On the same counts, the results for `CC(C)Oc1ccc(-c2ncc3c(n2)CCN(CCC(=O)O)C3)cc1Cl` [Compound 79, 3-(2-(3-chloro-4-isopropoxyphenyl)-7,8-dihydropyrido[4,3-d]pyrimidin-6(5H)-yl)propanoic acid] are 1000 to 10000 nM, more than 1000 nM and more than 1000 nM.
As to `O=C(O)CCCN1CCc2nc(C#Cc3cc(F)ccc3F)ncc2C1` [Compound 49, 4-(2-((2,5-difluorophenyl)ethynyl)-7,8-dihydropyrido[4,3-d]pyrimidin-6(5H)-yl)butanoic acid], the EC50 was 1000 to 10000 nM on human S1PR5 receptor, more than 1000 nM on human S1PR1 receptor and more than 1000 nM at human S1PR3 receptor.
As to `O=C(O)CCCN1CCc2nc(-c3ccc(OCc4cccc(F)c4)cc3)ccc2C1` [Compound 116, 4-(2-(4-((3-fluorobenzyl)oxy)phenyl)-7,8-dihydro-1,6-naphthyridin-6(5H)-yl)butanoic acid], the EC50 at human S1PR5 receptor was less than 10 nM; on human S1PR1 receptor, more than 1000 nM; at human S1PR3 receptor, more than 1000 nM.
In the case of `O=C(O)CCCN1CCc2nc(-c3ccc(OCc4cccc(Cl)c4)cc3)ncc2C1` [Compound 38, 4-(2-(4-((3-chlorobenzyl)oxy)phenyl)-7,8-dihydropyrido[4,3-d]pyrimidin-6(5H)-yl)butanoic acid], the EC50 at human S1PR5 receptor is less than 10 nM; on human S1PR1 receptor it was more than 1000 nM; at human S1PR3 receptor, more than 1000 nM.
As to `CC(CN1CCc2nc(-c3ccc(OCc4cccc(F)c4)cc3)ccc2C1)C(=O)O` (stereo not drawn) [Compound 109, 3-(2-(4-((3-fluorobenzyl)oxy)phenyl)-7,8-dihydro-1,6-naphthyridin-6(5H)-yl)-2-methylpropanoic acid], the concentration giving a half-maximal response (EC50) on human S1PR5 receptor was less than 10 nM; at human S1PR1 receptor it was less than 1000 nM; at human S1PR3 receptor, more than 1000 nM.
For `O=C(O)CCCN1CCc2nc(-c3ccc(OCc4ccccc4)cc3)ccc2C1` [Compound 115, 4-(2-(4-(benzyloxy)phenyl)-7,8-dihydro-1,6-naphthyridin-6(5H)-yl)butanoic acid], the results for the EC50 on human S1PR5 receptor, on human S1PR1 receptor and at human S1PR3 receptor were less than 10 nM, more than 1000 nM and more than 1000 nM, respectively.
As for `CC(CC(=O)O)N1CCc2nc(-c3ccc(OCc4cccc(F)c4)cc3)ncc2C1` (stereo not drawn) [Compound 41, 3-(2-(4-((3-fluorobenzyl)oxy)phenyl)-7,8-dihydropyrido[4,3-d]pyrimidin-6(5H)-yl)butanoic acid], the EC50 on human S1PR5 receptor is less than 10 nM; at human S1PR1 receptor, more than 1000 nM; on human S1PR3 receptor, more than 1000 nM.
Regarding `CSc1ccc(COc2ccc(-c3ncc4c(n3)CCN(CCC(=O)O)C4)cc2)cc1` [Compound 80, 3-(2-(4-((4-(methylthio)benzyl)oxy)phenyl)-7,8-dihydropyrido[4,3-d]pyrimidin-6(5H)-yl)propanoic acid], the EC50 is less than 10 nM on human S1PR5 receptor, more than 1000 nM at human S1PR1 receptor and more than 1000 nM on human S1PR3 receptor.
Take `O=C(O)CCCN1CCc2nc(-c3ccc(OCc4ccccc4)cc3)ncc2C1` [Compound 37, 4-(2-(4-(benzyloxy)phenyl)-7,8-dihydro-dihydropyrido[4,3-d]pyrimidin-6(5H)-yl)butanoic acid]: the figures for the EC50 on human S1PR5 receptor, at human S1PR1 receptor and on human S1PR3 receptor were 10 to 100 nM, more than 1000 nM and more than 1000 nM, respectively.
For the compound `Cc1cc(-c2ccc3c(n2)CCN(CC(=O)O)C3)ccc1OCc1ccccc1` [Compound 111, 2-(2-(4-(benzyloxy)-3-methylphenyl)-7,8-dihydro-1,6-naphthyridin-6(5H)-yl)acetic acid], the EC50 was 100 to 1000 nM at human S1PR5 receptor, more than 1000 nM at human S1PR1 receptor and more than 1000 nM on human S1PR3 receptor.
Take `O=C(O)CCN1CCc2nc(-c3ccc(OCc4cccc(F)c4F)cc3)c(F)cc2C1` [Compound 197]: the EC50 at human S1PR5 receptor is less than 10 nM; at human S1PR1 receptor it was less than 1000 nM; on human S1PR3 receptor, more than 1000 nM.
Taken in the same sequence, the figures for `Cc1ccc(C(F)(F)F)cc1COc1ccc(-c2ccc3c(n2)CCN(CCC(=O)O)C3)cc1` [Compound 158, 3-(2-(4-((2-methyl-5-(trifluoromethyl)benzyl)oxy)phenyl)-7,8-dihydro-1,6-naphthyridin-6(5H)-yl)propanoic acid] were 10 to 100 nM, more than 1000 nM and more than 1000 nM.
As to `Cc1cc(COc2ccc(-c3ncc4c(n3)CCN(CCC(=O)O)C4)cc2)cc(OC(F)(F)F)c1` [Compound 95, 3-(2-(4-((3-methyl-5-(trifluoromethoxy)benzyl)oxy)phenyl)-7,8-dihydropyrido[4,3-d]pyrimidin-6(5H)-yl)propanoic acid], the EC50 on human S1PR5 receptor was less than 10 nM; on human S1PR1 receptor, less than 1000 nM; at human S1PR3 receptor it was more than 1000 nM.
Regarding `Cc1cc(-c2ccc3c(n2)CCN(C2CC(C(=O)O)C2)C3)ccc1OCc1ccccc1` (stereo not drawn) [Compound 117, 3-(2-(4-(benzyloxy)-3-methylphenyl)-7,8-dihydro-1,6-naphthyridin-6(5H)-yl)cyclobutanecarboxylic acid], the values for the EC50 at human S1PR5 receptor, at human S1PR1 receptor and on human S1PR3 receptor were 100 to 1000 nM, more than 1000 nM and more than 1000 nM, respectively.
`O=C(O)CCN1CCc2nc(-c3ccc(OCc4ccccc4C(F)F)cc3)ncc2C1` [Compound 78, 3-(2-(4-((2-difluoromethylbenzyl)oxy)phenyl)-7,8-dihydropyrido[4,3-d]pyrimidin-6(5H)-yl)propanoic acid]: the EC50 is less than 10 nM at human S1PR5 receptor, more than 1000 nM on human S1PR1 receptor and more than 1000 nM at human S1PR3 receptor.
Take `O=C(O)CCN1CCc2nc(-c3ccc(OCc4cccc(C(F)F)c4)cc3)ncc2C1` [Compound 76, 3-(2-(4-((3-difluoromethylbenzyl)oxy)phenyl)-7,8-dihydropyrido[4,3-d]pyrimidin-6(5H)-yl)propanoic acid]: the EC50 on human S1PR5 receptor was less than 10 nM; on human S1PR1 receptor it was more than 1000 nM; on human S1PR3 receptor it was more than 1000 nM.
In the case of `Cc1cc(-c2cc3c(cn2)CN(CCC(=O)O)CC3)ccc1OCc1ccccc1` [Compound 171, 3-(6-(4-(benzyloxy)-3-methylphenyl)-3,4-dihydro-2,7-naphthyridin-2(1H)-yl)propanoic acid], the concentration for a half-maximal effect (EC50) on human S1PR5 receptor is 10 to 100 nM; at human S1PR1 receptor, more than 1000 nM; at human S1PR3 receptor it was more than 1000 nM.
As to `O=C(O)CCN1Cc2ccc(-c3cccc(OCc4ccccc4)c3)nc2C1` [Compound 204, 3-(2-(3-(benzyloxy)phenyl)-5H-pyrrolo[3,4-b]pyridin-6(7H)-yl)propanoic acid], the values for the EC50 on human S1PR5 receptor, at human S1PR1 receptor and on human S1PR3 receptor were 1000 to 10000 nM, more than 1000 nM and more than 1000 nM, respectively.
